Experimental data taken from patent US8173145B2, “Formulation containing phosphate derivatives of electron transfer agents” (Vital Health Sciences Pty. Ltd., priority 2000, dated 2012).

Assay: foam stability / surface active properties test
Format: physicochemical
Conditions: 0.1 g in 10 ml distilled water, shaken; foam examined daily over four days
Procedure: 0.1 g of pure di-sodium mono-tocopheryl phosphate was dissolved in 10 ml of pure distilled water in a 50 ml cylindrical stoppered vessel.

Cc1c(C)c2c(c(C)c1OP(=O)([O-])[O-])CC[C@@](C)(CCC[C@H](C)CCC[C@H](C)CCCC(C)C)O2.[Na+].[Na+] [di-sodium mono-tocopheryl phosphate]
Foam stability: complete stability for one day
